In ChEMBL document CHEMBL6178018, “Design of an Oral STING Agonist through Intramolecular Hydrogen Bond Ring Mimicking to Achieve Complete Tumor Regression” (J Med Chem, 2025):
pEC50, pIC50: −log10 of the molar value. One block for each compound: values may come before it. Calls of active or inactive are those of the source. No cut-off for these calls is given here.

Assays:
[1] = target: T1, Stimulator of interferon genes protein (Homo sapiens, UniProt Q86WV6); assay: Agonist activity at human STING HAQ variant in human THP1-Blue ISG cells assessed as fold change in stimulation activity measured after 24 hrs incubation by QUANTI-Blue based microplate reader; type: cell-based
Target sequence in this assay (Q86WV6 whole entry, looked up, change not shown): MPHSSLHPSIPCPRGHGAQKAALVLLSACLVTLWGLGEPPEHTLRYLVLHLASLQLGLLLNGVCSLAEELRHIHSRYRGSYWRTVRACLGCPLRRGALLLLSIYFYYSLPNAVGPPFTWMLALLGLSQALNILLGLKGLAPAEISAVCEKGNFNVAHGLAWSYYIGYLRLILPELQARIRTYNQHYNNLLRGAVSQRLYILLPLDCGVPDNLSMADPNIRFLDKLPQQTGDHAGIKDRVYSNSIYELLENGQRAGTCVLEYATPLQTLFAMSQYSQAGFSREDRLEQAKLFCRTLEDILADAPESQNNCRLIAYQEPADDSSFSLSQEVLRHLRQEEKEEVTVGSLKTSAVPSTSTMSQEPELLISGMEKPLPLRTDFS

[2] = target: T1, Stimulator of interferon genes protein; assay: Binding affinity to wild type His-tagged STING (unknown origin) measured after 3 hrs incubation by HTRF assay
Target sequence in this assay (Q86WV6 whole entry): as the sequence (Q86WV6 whole entry, looked up, change not shown) above

[3] = target: T1, Stimulator of interferon genes protein; assay: Agonist activity at STING R232 mutant (unknown origin) expressed in human THP1-Dual cells assessed as fold change in stimulation activity measured after 24 hrs incubation by QUANTI-Luc4 based microplate reader; type: cell-based
Target sequence in this assay (Q86WV6 whole entry, looked up, change not shown): as above

[4] = target: T2, Stimulator of interferon genes protein (Mus musculus, UniProt Q3TBT3); assay: Agonist activity at mouse STING expressed in human THP1-Dual cells assessed as fold change in stimulation activity measured after 24 hrs incubation by QUANTI-Luc4 based microplate reader; type: cell-based
T2 sequence (Q3TBT3 whole entry): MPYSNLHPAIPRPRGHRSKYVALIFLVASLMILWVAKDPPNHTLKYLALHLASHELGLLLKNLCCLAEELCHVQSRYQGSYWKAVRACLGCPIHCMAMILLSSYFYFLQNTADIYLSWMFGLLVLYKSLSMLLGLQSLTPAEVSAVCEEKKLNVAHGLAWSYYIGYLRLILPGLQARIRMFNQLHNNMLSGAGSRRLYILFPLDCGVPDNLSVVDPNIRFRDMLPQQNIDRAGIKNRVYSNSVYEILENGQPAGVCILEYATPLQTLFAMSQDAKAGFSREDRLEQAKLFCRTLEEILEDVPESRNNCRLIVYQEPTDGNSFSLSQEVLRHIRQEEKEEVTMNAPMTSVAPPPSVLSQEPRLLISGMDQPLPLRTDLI

[5] = target: T1, Stimulator of interferon genes protein; assay: Agonist activity at human STING in human THP1-Blue ISG cells measured after 24 hrs incubation by QUANTI-Blue based microplate reader; type: cell-based
Target sequence in this assay (Q86WV6 whole entry): as the sequence (Q86WV6 whole entry, looked up, change not shown) above

[6] = Chemical stability of the compound in MeOH/H2O assessed as half life by LC-MS/MS analysis; type: physicochemical
[7] = Clearance in mouse at 10 mg/kg, po by LC-MS/MS analysis; type: ADME, organism-based; conditions: in vivo
[8] = Half life in mouse at 5 mg/kg, iv by LC-MS/MS analysis; type: ADME, organism-based; conditions: in vivo
[9] = Cmax in mouse at 10 mg/kg, po by LC-MS/MS analysis; type: ADME, organism-based; conditions: in vivo
[10] = Clearance in mouse at 5 mg/kg, iv by LC-MS/MS analysis; type: ADME, organism-based; conditions: in vivo
[11] = Oral bioavailability in mouse at 10 mg/kg by LC-MS/MS analysis; type: ADME, organism-based; conditions: in vivo
MC-38 [12] = assay: In vivo antitumor activity against mouse MC-38 cells inoculated in C57BL/6 mouse assessed as complete tumor regression (CR) at 60 mg/kg, po Q3D measured for 15 to 20 days; type: functional, organism-based; conditions: time 15-20 day
[13] = AUC in mouse at 10 mg/kg, po by LC-MS/MS analysis; type: ADME, organism-based; conditions: in vivo
MC-38 [14] = assay: In vivo antitumor activity against mouse MC-38 cells inoculated in C57BL/6 mouse assessed as as increase in moue survival time at 60 mg/kg, po Q3D measured for 15 to 20 days; type: functional, organism-based; conditions: time 15-20 day
[15] = Half life in mouse at 10 mg/kg, po by LC-MS/MS analysis; type: ADME, organism-based; conditions: in vivo
[16] = AUC in mouse at 5 mg/kg, iv by LC-MS/MS analysis; type: ADME, organism-based; conditions: in vivo
[17] = Cmax in mouse at 5 mg/kg, iv by LC-MS/MS analysis; type: ADME, organism-based; conditions: in vivo
MC-38 [18] = assay: In vivo antitumor activity against mouse MC-38 cells inoculated in C57BL/6 mouse assessed as complete tumor regression (CR) at 60 mg/kg, po Q3D co-administered with anti-PD1 measured for 15 to 20 days; type: functional; conditions: time 15-20 day
[19] = Stability of the compound in human plasma assessed as half life by LC-MS/MS analysis; type: ADME, cell-free
[20] = Metabolic stability in human liver microsomes assessed as half life at 10 uM measured up to 60 mins by LC-MS/MS analysis; type: ADME, Microsome
[21] = Metabolic stability in mouse liver microsomes assessed as half life at 10 uM measured up to 60 mins by LC-MS/MS analysis; type: ADME, Microsome
[22] = Chemical stability of the compound in MeOH/H2O solvent assessed as half life by LC-MS/MS analysis; type: physicochemical
[23] = Stability of the compound in mouse plasma assessed as half life by LC-MS/MS analysis; type: ADME, cell-free

pEC50 [1]: < 4.00
Compound: CCOc1cc2c(F)c(C(=O)NCCC(=O)O)sc2cc1OC

pEC50 [1]: < 4.00
Compound: COc1cc2sc(C(=O)NCC3(C(=O)O)CC3)c(F)c2cc1OC

pEC50 [1]: < 4.00
Compound: COc1cc2sc(C(=O)NCCC(=O)O)c(C)c2cc1OC

pEC50 [1]: < 4.00
Compound: COc1cc2sc(C(=O)NCCC(=O)O)c(F)c2cc1OC(C)C

pIC50 [2]: < 4.00
pEC50 [3]: < 4.00
pEC50 [1]: 4.88
pEC50 [4]: < 4.00
Compound: CCC(CNC(=O)c1sc2cc(Br)c(OC)cc2c1F)C(=O)O (configuration not stated)

pIC50 [2]: 4.12
pEC50 [3]: 4.07
pEC50 [1]: 5.46
pEC50 [4]: 4.03
Compound: CCC(CNC(=O)c1sc2c(F)c(OC)c(OC)cc2c1F)C(=O)O (configuration not stated)

pIC50 [2]: 4.48
pEC50 [3]: 4.23
pEC50 [1]: 5.21
pEC50 [4]: 4.21
Compound: COc1cc2sc(C(=O)NC[C@H](C)C(=O)O)c(F)c2cc1OC

pEC50 [1]: 4.58
Compound: COc1cc2sc(C(=O)NCCC(=O)O)c(Cl)c2cc1OC

pEC50 [1]: < 4.00
Compound: COc1cc2sc(C(=O)NCCS(N)(=O)=O)c(F)c2cc1OC

pEC50 [1]: < 4.00
Compound: CONC(=O)C(F)(F)CNC(=O)c1sc2cc(OC)c(Br)cc2c1F

pEC50 [1]: < 4.00
Compound: COc1cc2sc(C(=O)N[C@H](C)CC(=O)O)c(F)c2cc1OC

pEC50 [1]: < 4.00
Compound: COc1cc2sc(C(=O)NCCC(O)(C(F)(F)F)C(F)(F)F)c(F)c2cc1OC

pIC50 [2]: 4.30
pEC50 [5]: 4.52
pEC50 [1]: 4.52
half-life [6]: > 2880 min
Compound: COc1cc2sc(C(=O)NCCC(=O)O)c(F)c2cc1OC

pIC50 [2]: 4.65
pEC50 [3]: 5.06
CL/F [7]: 22 mL/min/kg
half-life [8]: 18 min
Cmax [9]: 13400 ng/mL
clearance [10]: 11.5 mL/min/kg
bioavailability [11]: 52%
AUC [13]: 7570 ng·h/mL
pEC50 [1]: 5.36
half-life [15]: 90 min
AUC [16]: 7260 ng·h/mL
pEC50 [4]: 5.09
Cmax [17]: 25100 ng/mL
Compound: COc1cc2cc(C(=O)CCC(=O)O)sc2cc1OC
Activity (MC-38 [12]): inactive
Activity (MC-38 [14]): inactive

pIC50 [2]: 4.66
pEC50 [3]: 4.71
half-life [19]: 30 min
half-life at 10 µM [20]: > 60 min
half-life at 10 µM [21]: > 60 min
half-life [22]: 21 min
half-life [23]: > 60 min
pEC50 [1]: 5.35
pEC50 [4]: 4.60
half-life [6]: 1260 min
Compound: COc1cc2sc3c(c2cc1OC)C(=O)N(CCC(=O)O)C3=O
Activity (MC-38 [18]): 60%
Activity (MC-38 [12]): inactive
Activity (MC-38 [14]): inactive

pEC50 [1]: < 4.00
Compound: COc1cc2sc(C(=O)NCCC(=O)O)c(I)c2cc1OC

pIC50 [2]: 4.51
pEC50 [3]: 4.48
pEC50 [1]: 5.15
pEC50 [4]: 4.60
Compound: COc1cc2sc(C(=O)NCC(C)C(=O)O)c(F)c2cc1OC (racemic)

pEC50 [1]: < 4.00
Compound: COc1cc2sc(C(=O)NCCC(=O)O)c(F)c2cc1F

pEC50 [1]: < 4.00
Compound: CONC(=O)C(C)CNC(=O)c1sc2cc(OC)c(Br)cc2c1F (configuration not stated)

pEC50 [1]: 4.33
Compound: COc1cc2sc(C(=O)NCCC(=O)O)c(Br)c2cc1OC

pEC50 [1]: < 4.00
Compound: COc1cc2sc(C(=O)NCCC(=O)NS(C)(=O)=O)c(F)c2cc1OC

pEC50 [1]: < 4.00
Compound: C#Cc1c(C(=O)NCCC(=O)O)sc2cc(OC)c(OC)cc12

pEC50 [1]: < 4.00
Compound: COc1cc2sc(C(=O)NCC(C)C(=O)O)c(F)c2cc1Br (configuration not stated)

Compound: COc1cc2[se]c(C(=O)NCC(C)C(=O)O)c(F)c2cc1OC (configuration not stated)
pEC50 [3]: 4.58
pEC50 [1]: 5.24
pEC50 [4]: 4.57
